Source: the supplement of paper PMC10307832

Key:
Assay in all cases: relative viability (nuclei count vs DMSO), 5 days (fraction); higher = more cells survive
XMD14-99 + Trametinib = compound: CN1CCN(CC1)C2=CC(=C(C=C2)NC3=NC(=C(S3)C(=O)C4=C(C=CC=C4Cl)Cl)N)OC [XMD14-99] + CC(=O)Nc1cccc(-n2c(=O)n(C3CC3)c(=O)c3c(Nc4ccc(I)cc4F)n(C)c(=O)c(C)c32)c1 [Trametinib] (partner 0.02 µM)
Method in brief: (§1)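 Lung cancer cell lines were pin-tool dosed in 1536-well plates on the day after seeding, with either a lone drug or a fixed anchor-drug dose plus five library-drug doses (not always all listed) in √10 steps. Nuclei were counted on 4× images after 5 days. Relative viability is the ratio of treated-well to vehicle-well nuclei counts, with each value a median of duplicate plates.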

XMD14-99 + Navitoclax = compound: CN1CCN(CC1)C2=CC(=C(C=C2)NC3=NC(=C(S3)C(=O)C4=C(C=CC=C4Cl)Cl)N)OC [XMD14-99] + CC1(C)CCC(c2ccc(Cl)cc2)=C(CN2CCN(c3ccc(C(=O)NS(=O)(=O)c4ccc(N[C@H](CCN5CCOCC5)CSc5ccccc5)c(S(=O)(=O)C(F)(F)F)c4)cc3)CC2)C1 [Navitoclax] (partner 0.5 µM)
Method in brief: as §1

XMD14-99 + Foretinib = compound: CN1CCN(CC1)C2=CC(=C(C=C2)NC3=NC(=C(S3)C(=O)C4=C(C=CC=C4Cl)Cl)N)OC [XMD14-99] + COc1cc2c(Oc3ccc(NC(=O)C4(C(=O)Nc5ccc(F)cc5)CC4)cc3F)ccnc2cc1OCCCN1CCOCC1 [Foretinib] (partner 0.25 µM)
Method in brief: as §1

XMD14-99 + Tozasertib = compound: CN1CCN(CC1)C2=CC(=C(C=C2)NC3=NC(=C(S3)C(=O)C4=C(C=CC=C4Cl)Cl)N)OC [XMD14-99] + Cc1cc(Nc2cc(N3CCN(C)CC3)nc(Sc3ccc(NC(=O)C4CC4)cc3)n2)n[nH]1 [Tozasertib] (partner 0.1 µM)
Method in brief: as §1

## UMC-11
XMD14-99 + Trametinib; first compound 0.08 µM
  relative viability: 0.744
XMD14-99 + Trametinib; first compound 0.8 µM
  relative viability: 0.637
XMD14-99 + Trametinib; first compound 2.53 µM
  relative viability: 0.747
XMD14-99 + Trametinib; first compound 8 µM
  relative viability: 0.645
XMD14-99 + Navitoclax; first compound 0.08 µM
  relative viability: 0.308
XMD14-99 + Navitoclax; first compound 0.8 µM
  relative viability: 0.33
XMD14-99 + Navitoclax; first compound 2.53 µM
  relative viability: 0.343
XMD14-99 + Navitoclax; first compound 8 µM
  relative viability: 0.317
XMD14-99 + Foretinib; first compound 0.08 µM
  relative viability: 1.03
XMD14-99 + Foretinib; first compound 0.8 µM
  relative viability: 1.02
XMD14-99 + Foretinib; first compound 2.53 µM
  relative viability: 1.03
XMD14-99 + Foretinib; first compound 8 µM
  relative viability: 0.865
XMD14-99 + Tozasertib; first compound 0.08 µM
  relative viability: 0.196
XMD14-99 + Tozasertib; first compound 0.8 µM
  relative viability: 0.227
XMD14-99 + Tozasertib; first compound 2.53 µM
  relative viability: 0.231
XMD14-99 + Tozasertib; first compound 8 µM
  relative viability: 0.23
